Source: ChEMBL document CHEMBL2150976, “Camptothecins in tumor homing via an RGD sequence mimetic” (Bioorg Med Chem Lett, 2012)

Tests used:
PC-3 [1] = experiment: Cytotoxicity against human PC3 cells expressing […] integrin assessed as cell survival after 72 hrs by SRB assay; type: functional, cell-based; conditions: PC-3, 72 h
A2780 = experiment: Cytotoxicity against human A2780 cells overexpressing […] integrin assessed as cell survival after 72 hrs by SRB assay; type: functional, cell-based; conditions: A2780, 72 h
Integrin alpha-V/beta-3 [2] = target: T1, Integrin alpha-V/beta-3 (Homo sapiens, UniProt P05106+P06756); experiment: Displacement of [125I]echistatin from integrin […] after 3 hrs by gamma counter; type: protein-complex assay
T1 sequence (P05106 27-788 limits assumed): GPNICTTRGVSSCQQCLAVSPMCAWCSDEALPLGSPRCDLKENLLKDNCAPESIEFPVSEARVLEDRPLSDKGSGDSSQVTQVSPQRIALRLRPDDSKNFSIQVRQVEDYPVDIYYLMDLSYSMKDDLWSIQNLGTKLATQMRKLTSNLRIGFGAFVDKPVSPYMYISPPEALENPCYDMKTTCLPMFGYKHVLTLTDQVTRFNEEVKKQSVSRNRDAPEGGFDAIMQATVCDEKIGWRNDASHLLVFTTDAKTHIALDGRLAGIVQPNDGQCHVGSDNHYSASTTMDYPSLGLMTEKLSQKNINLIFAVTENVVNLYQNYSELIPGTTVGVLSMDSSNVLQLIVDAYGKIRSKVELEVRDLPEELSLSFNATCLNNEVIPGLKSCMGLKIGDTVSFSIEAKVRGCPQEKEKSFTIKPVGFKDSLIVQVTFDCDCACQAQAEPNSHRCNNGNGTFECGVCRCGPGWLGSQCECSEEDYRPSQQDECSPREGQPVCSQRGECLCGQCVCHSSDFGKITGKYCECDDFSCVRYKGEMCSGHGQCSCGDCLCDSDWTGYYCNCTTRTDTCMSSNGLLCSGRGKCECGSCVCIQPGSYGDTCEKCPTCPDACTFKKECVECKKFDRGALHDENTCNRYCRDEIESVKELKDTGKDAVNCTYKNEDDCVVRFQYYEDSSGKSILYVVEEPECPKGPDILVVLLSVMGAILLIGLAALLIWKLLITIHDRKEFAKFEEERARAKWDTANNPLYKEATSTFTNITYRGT
T1 sequence (P06756 31-889 limits assumed): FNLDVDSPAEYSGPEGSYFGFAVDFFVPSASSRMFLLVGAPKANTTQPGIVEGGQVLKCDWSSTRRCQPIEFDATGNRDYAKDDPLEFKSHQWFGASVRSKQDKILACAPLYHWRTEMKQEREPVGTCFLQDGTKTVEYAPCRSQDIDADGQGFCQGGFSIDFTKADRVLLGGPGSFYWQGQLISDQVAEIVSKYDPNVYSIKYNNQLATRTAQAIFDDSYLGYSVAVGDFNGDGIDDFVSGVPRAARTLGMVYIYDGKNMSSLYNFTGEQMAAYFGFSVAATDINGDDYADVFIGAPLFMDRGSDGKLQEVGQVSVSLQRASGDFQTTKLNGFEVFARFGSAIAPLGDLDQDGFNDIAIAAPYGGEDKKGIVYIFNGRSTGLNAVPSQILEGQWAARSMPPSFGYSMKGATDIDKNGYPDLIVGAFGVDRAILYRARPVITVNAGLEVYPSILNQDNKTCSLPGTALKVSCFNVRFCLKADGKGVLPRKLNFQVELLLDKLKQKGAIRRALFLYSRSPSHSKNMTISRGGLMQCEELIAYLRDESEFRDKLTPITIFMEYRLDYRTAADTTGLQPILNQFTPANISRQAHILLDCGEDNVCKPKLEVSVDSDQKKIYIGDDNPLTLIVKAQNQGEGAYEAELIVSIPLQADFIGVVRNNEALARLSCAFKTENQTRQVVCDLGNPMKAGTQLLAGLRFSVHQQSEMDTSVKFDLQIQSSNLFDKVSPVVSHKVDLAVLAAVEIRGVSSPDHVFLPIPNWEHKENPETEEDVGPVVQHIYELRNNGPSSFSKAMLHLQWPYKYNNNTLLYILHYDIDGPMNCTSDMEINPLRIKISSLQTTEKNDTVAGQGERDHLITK
T1 sequence (P06756 891-1048 limits assumed): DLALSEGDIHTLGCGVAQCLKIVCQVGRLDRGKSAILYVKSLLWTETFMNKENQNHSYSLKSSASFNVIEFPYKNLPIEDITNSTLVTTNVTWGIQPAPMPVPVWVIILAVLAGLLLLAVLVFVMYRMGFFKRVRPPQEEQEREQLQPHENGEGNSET

Integrin alpha-V/beta-5 = Integrin alpha-V/beta-5 (Homo sapiens, UniProt P06756+P18084); experiment: Displacement of [125I]echistatin from integrin […] after 3 hrs by gamma counter; type: protein-complex assay
Integrin alpha-V/beta-5, sequence (P06756 31-889 limits assumed): as the sequence (P06756 31-889 limits assumed) above
Integrin alpha-V/beta-5, sequence (P06756 891-1048 limits assumed): as the sequence (P06756 891-1048 limits assumed) above
Integrin alpha-V/beta-5, sequence (P18084 24-799 limits assumed): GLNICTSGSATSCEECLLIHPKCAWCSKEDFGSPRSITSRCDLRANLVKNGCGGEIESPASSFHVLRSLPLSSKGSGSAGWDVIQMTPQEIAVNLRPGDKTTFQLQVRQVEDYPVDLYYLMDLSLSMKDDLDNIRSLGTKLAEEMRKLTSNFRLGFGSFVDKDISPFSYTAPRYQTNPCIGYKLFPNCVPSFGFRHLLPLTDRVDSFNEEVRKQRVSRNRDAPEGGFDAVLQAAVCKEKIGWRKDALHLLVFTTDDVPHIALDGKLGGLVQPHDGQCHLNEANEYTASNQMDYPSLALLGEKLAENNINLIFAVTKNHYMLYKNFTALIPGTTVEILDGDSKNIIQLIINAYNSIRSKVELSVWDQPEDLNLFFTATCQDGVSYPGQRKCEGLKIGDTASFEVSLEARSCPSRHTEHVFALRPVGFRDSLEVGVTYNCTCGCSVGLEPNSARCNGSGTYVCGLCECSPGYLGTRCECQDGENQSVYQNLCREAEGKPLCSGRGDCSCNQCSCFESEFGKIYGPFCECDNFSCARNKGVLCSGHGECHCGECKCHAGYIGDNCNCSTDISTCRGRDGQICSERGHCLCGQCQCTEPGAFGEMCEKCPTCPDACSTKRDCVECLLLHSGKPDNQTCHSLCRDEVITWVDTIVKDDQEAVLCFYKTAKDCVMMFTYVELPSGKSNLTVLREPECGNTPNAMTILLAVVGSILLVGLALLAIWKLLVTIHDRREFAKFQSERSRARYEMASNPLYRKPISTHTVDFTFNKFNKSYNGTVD

Integrin alpha-V/beta-3 [3] = target: T1, Integrin alpha-V/beta-3; experiment: Inhibition of vitronectin binding to human alphaVbeta3 integrin over expressed in A2780 cells; type: cell-based
Integrin alpha-V/beta-3 [4] = target: T1, Integrin alpha-V/beta-3; experiment: Inhibition of vitronectin binding to human alphaVbeta3 integrin expressed in PC3 cells; type: cell-based, PC-3
[5] = Half life in rat plasma at 5 uM after 24 hrs by HPLC analysis; type: ADME, cell-free
Mus musculus [6] = experiment: Toxicity in CD1 nude mouse xenografted with human PC3 cells assessed as body weight loss at 60 mg/10 mL/kg, ip q4d x 4 schedule administered on day 3 of tumor implantation measured after 31 days post tumor implantation; type: organism-based, PC-3; conditions: in vivo, 744 h
Mus musculus [7] = experiment: Toxicity in CD1 nude mouse xenografted with human PC3 cells assessed as mortality at 60 mg/10 mL/kg, ip q4d x 4 schedule administered on day 3 of tumor implantation measured after 31 days post tumor implantation; type: organism-based, PC-3; conditions: in vivo, 744 h
PC-3 [8] = experiment: Antimetastatic activity against human PC3 cells xenografted in CD1 nude mouse assessed as area of metastases at 60 mg/10 mL/kg, ip q4d x 4 schedule administered on day 3 of tumor implantation measured after 31 days post tumor implantation; type: functional
PC-3 [9] = experiment: Antimetastatic activity against human PC3 cells xenografted in CD1 nude mouse assessed as increase in life span at 60 mg/10 mL/kg, ip q4d x 4 schedule administered on day 3 of tumor implantation measured after 31 days post tumor implantation; type: functional
PC-3 [10] = experiment: Antimetastatic activity against human PC3 cells xenografted in CD1 nude mouse assessed as median survival time at 60 mg/10 mL/kg, ip q4d x 4 schedule administered on day 3 of tumor implantation measured after 31 days post tumor implantation; type: functional
Mus musculus [11] = experiment: Toxicity in CD1 nude mouse xenografted with human A498 cells assessed as body weight loss at 55 mg/10 mL/kg, ip q4d x 8 schedule administered on day 3 of tumor implantation measured after 10 days; type: organism-based; conditions: in vivo, 240 h
Mus musculus [12] = experiment: Toxicity in CD1 nude mouse xenografted with human A498 cells assessed as mortality at 55 mg/10 mL/kg, ip q4d x 8 schedule administered on day 3 of tumor implantation measured after 10 days; type: organism-based; conditions: in vivo, 240 h
A498 = experiment: Antitumor activity against human A498 cells xenografted in CD1 nude mouse assessed as tumor volume inhibition at 55 mg/10 mL/kg, ip q4d x 8 schedule administered on day 3 of tumor implantation measured after 10 days; type: functional

Structure (SMILES)	IC50 (PC-3 [1])	IC50 (A2780)	IC50 (Integrin alpha-V/beta-3 [2])	IC50 (Integrin alpha-V/beta-5)	IC50 (Integrin alpha-V/beta-3 [3])	IC50 (Integrin alpha-V/beta-3 [4])	also measured
CC[C@@]1(O)C(=O)OCc2c1cc1n(c2=O)Cc2c-1nc1ccc(O)cc1c2/C=N/OC(C)(C)C	15 nM	0.4 nM	–	–	–	–	–
N[C@@H](CCC(=O)N1CCN(c2cccc(NC3=NCCCN3)c2)CC1)C(=O)O	–	–	800 nM	–	–	–	–
COC(=O)c1ccc(CNC(=O)N[C@@H](CCC(=O)N2CCN(c3cccc(N=C4NCCCN4)c3)CC2)C(=O)O)cc1	–	–	109 nM	–	–	–	–
COC(=O)c1ccc(COC(=O)N[C@@H](CCC(=O)N2CCN(c3cccc(NC4=NCCCN4)c3)CC2)C(=O)O)cc1	–	–	2.3 nM	–	–	–	–
CCc1c2c(nc3ccc(OC(=O)N4CCN(C(=O)c5ccc(COC(=O)N[C@@H](CCC(=O)N6CCN(c7cccc(NC8=NCCCN8)c7)CC6)C(=O)O)cc5)CC4)cc13)-c1cc3c(c(=O)n1C2)COC(=O)[C@]3(O)CC.Cl	3400 nM	33 nM	1.3 nM	1 nM	89 nM	37 nM	half-life at 5 µM [5]: 13 h; Activity (Mus musculus [6]): 0%; Activity (Mus musculus [7]): Non-toxic; Activity (PC-3 [8]): 2.5 mm2; Activity (PC-3 [9]): 34%; MST (PC-3 [10]): 63 days; Activity (Mus musculus [11]): 3%; Activity (Mus musculus [12]): Non-toxic; inhibition (INH) (A498): 39%
CC[C@@]1(O)C(=O)OCc2c1cc1n(c2=O)Cc2cc3cc(OC(=O)N4CCN(C(=O)c5ccc(COC(=O)N[C@@H](CCC(=O)N6CCN(c7cccc(NC8=NCCCN8)c7)CC6)C(=O)O)cc5)CC4)ccc3nc2-1	> 1000 nM	110 nM	2.28 nM	2.05 nM	730 nM	350 nM	–
CC[C@@]1(O)C(=O)OCc2c1cc1n(c2=O)Cc2c-1nc1ccc(OC(=O)N3CCN(C(=O)c4ccc(COC(=O)N[C@@H](CCC(=O)N5CCN(c6cccc(NC7=NCCCN7)c6)CC5)C(=O)O)cc4)CC3)cc1c2/C=N/OC(C)(C)C	> 1000 nM	67 nM	4.83 nM	0.76 nM	670 nM	130 nM	–
CC[C@@]1(O)C(=O)OCc2c1cc1n(c2=O)Cc2cc3c(CN(C)C)c(OC(=O)N4CCN(C(=O)c5ccc(COC(=O)N[C@@H](CCC(=O)N6CCN(c7cccc(NC8=NCCCN8)c7)CC6)C(=O)O)cc5)CC4)ccc3nc2-1	> 1000 nM	570 nM	4.97 nM	0.73 nM	1000 nM	540 nM	–
O=C(N[C@@H](CCC(=O)N1CCN(c2cccc(N=C3NCCCN3)c2)CC1)C(=O)O)OCc1ccc(C(=O)O)cc1	–	–	0.082 nM	2.2 nM	17 nM	6.3 nM	–
O=C(N[C@@H](CCC(=O)N1CCN(c2cccc(NC3=NCCCN3)c2)CC1)C(=O)O)OCc1ccccc1	–	–	3.26 nM	–	–	–	–
CCc1c2c(nc3ccc(O)cc13)-c1cc3c(c(=O)n1C2)COC(=O)[C@]3(O)CC [7-ETHYL-10-HYDROXYCAMPTOTHECIN]	2.6 nM	9 nM	–	–	–	–	–
CC[C@@]1(O)C(=O)OCc2c1cc1n(c2=O)Cc2cc3cc(O)ccc3nc2-1 [HYDROXYCAMPTOTHECIN]	78 nM	4 nM	–	–	–	–	–
CC[C@@]1(O)C(=O)OCc2c1cc1n(c2=O)Cc2cc3c(CN(C)C)c(O)ccc3nc2-1 [TOPOTECAN]	185 nM	6 nM	–	–	–	–	–
